System: muqueuse
Test: Comparative acute in vivo toxicity (mucosal irritation, C20)
Set-up: species or system lapin
Settings: for concentration théorique provoquant une irritation de la muqueuse moyenne identique (C20): rabbit, in vivo
Description: Enfin, une autre expérience a encore consisté à comparer la toxicité aiguë in vivo du polihexanide avec celle d'autres composés.
A cet effet, la toxicité du polihexanide a été comparée in vivo chez le lapin à celle du digluconate de chlorhexidine, et à celle de trois chlorures de benzyldiméthylalkylammonium.
Pour chacune des substances étudiées, une concentration théorique provoquant une irritation de la muqueuse moyenne identique (C20) a été déterminée.
Ces concentrations sont respectivement : • 0,25 g % pour le chlorure de benzalkonium • 0,28 g % pour le chlorure de benzyldiméthyldodecylammonium • 0,32 g % pour le chlorure de benzyldiméthylhexadecylanmonium • 0,54 g % pour le digluconate de chlorhexidine • 12,2 g % pour le polihexanide.
Ces valeurs montrent par conséquent, que le polihexanide est beaucoup moins toxique pour la muqueuse que les autres composés testés, puisque sa valeur C20 est 22 fois supérieure à celle de la chlorhexidine et 44 fois plus élevée que la valeur moyenne des chlorures de benzalkonium.

`CCCCCCCCCCCCC[N+](C)(C)Cc1ccccc1` [chlorure de benzalkonium] was tested. Which “concentration théorique provoquant une irritation de la muqueuse moyenne identique (C20)” value did it give?
The value was 0,25 g %.

Which “concentration théorique provoquant une irritation de la muqueuse moyenne identique (C20)” value does the source give for `CCCCCCCCCCCC[N+](C)(C)Cc1ccccc1` [chlorure de benzyldiméthyldodecylammonium] here?
Its value is 0,28 g %.

`CCCCCCCCCCCCCCCC[N+](C)(C)Cc1ccccc1` [chlorure de benzyldiméthylhexadecylanmonium] was tested. Which “concentration théorique provoquant une irritation de la muqueuse moyenne identique (C20)” value did it give?
Its value is 0,32 g %.

For `[H]/N=C(\N/C(=N/[H])NCCCCCCNC(=N)NC(=N)Nc1ccc(Cl)cc1)Nc1ccc(Cl)cc1` [digluconate de chlorhexidine], which “concentration théorique provoquant une irritation de la muqueuse moyenne identique (C20)” value is on record?
Its value is 0,54 g %.

Which results are given for polihexanide?
concentration théorique provoquant une irritation de la muqueuse moyenne identique (C20): 12,2 g %; valeur C20 supérieure à celle de la chlorhexidine (ratio of C20 values, versus chlorhexidine): 22 fois; valeur C20 plus élevée que la valeur moyenne des chlorures de benzalkonium (ratio of C20 values, versus the mean of the benzalkonium chlorides): 44 fois
